According to the NIST ThermoML archive (doi:10.1021/je0501991):

Experiments:
[1] = xn = mol fraction of the nth substance listed; conditions: 308.15 K, 101.33 kPa, Liquid
[2] = molar heat capacity at constant pressure; xn = mol fraction of the nth substance listed; conditions: Liquid
[3] = excess molar enthalpy (molar enthalpy of mixing); xn = mol fraction of the nth substance listed; conditions: 308.15 K, 101.33 kPa, Liquid
[4] = refractive index (Na D-line) (dimensionless); xn = mol fraction of the nth substance listed; conditions: 308.15 K, 101.33 kPa, Liquid, Standard Abbe refractometry

OCc1ccccc1 [benzenemethanol] + C[S+](C)[O-]
Conditions | excess molar enthalpy [kcal/mol] | mass density [kg/m3] | refractive index | viscosity [mPa·s]
[1], x2 = 0.0641 | – | 1037.17 | – | 3.957
[1], x2 = 0.1255 | – | 1040.32 | – | 3.787
[1], x2 = 0.2283 | – | 1045.4 | – | 3.49
[1], x2 = 0.3275 | – | 1050.05 | – | 3.201
[1], x2 = 0.4152 | – | 1054.07 | – | 2.949
[1], x2 = 0.5117 | – | 1058.52 | – | 2.686
[1], x2 = 0.5942 | – | 1062.41 | – | 2.477
[1], x2 = 0.6646 | – | 1065.87 | – | 2.306
[1], x2 = 0.7406 | – | 1069.8 | – | 2.134
[1], x2 = 0.8125 | – | 1073.74 | – | 1.988
[1], x2 = 0.8745 | – | 1077.57 | – | 1.858
[1], x2 = 0.9388 | – | 1081.3 | – | 1.748
[3], x2 = 0.0571 | -0.114 | – | – | –
[3], x2 = 0.108 | -0.194 | – | – | –
[3], x2 = 0.1537 | -0.249 | – | – | –
[3], x2 = 0.195 | -0.291 | – | – | –
[3], x2 = 0.2666 | -0.332 | – | – | –
[3], x2 = 0.3264 | -0.358 | – | – | –
[3], x2 = 0.4209 | -0.358 | – | – | –
[3], x2 = 0.492 | -0.34 | – | – | –
[3], x2 = 0.5924 | -0.304 | – | – | –
[3], x2 = 0.6856 | -0.247 | – | – | –
[3], x2 = 0.744 | -0.201 | – | – | –
[3], x2 = 0.8135 | -0.147 | – | – | –
[3], x2 = 0.8532 | -0.118 | – | – | –
[3], x2 = 0.8971 | -0.0825 | – | – | –
[3], x2 = 0.9208 | -0.0614 | – | – | –
[3], x2 = 0.9457 | -0.0392 | – | – | –
[3], x2 = 0.9721 | -0.021 | – | – | –
[4], x2 = 0.0641 | – | – | 1.5328 | –
[4], x2 = 0.1255 | – | – | 1.5297 | –
[4], x2 = 0.2283 | – | – | 1.5252 | –
[4], x2 = 0.3275 | – | – | 1.5204 | –
[4], x2 = 0.4152 | – | – | 1.5157 | –
[4], x2 = 0.5117 | – | – | 1.5099 | –
[4], x2 = 0.5942 | – | – | 1.5048 | –
[4], x2 = 0.6646 | – | – | 1.4998 | –
[4], x2 = 0.7406 | – | – | 1.4946 | –
[4], x2 = 0.8125 | – | – | 1.4891 | –
[4], x2 = 0.8745 | – | – | 1.4838 | –
[4], x2 = 0.9388 | – | – | 1.4785 | –

molar heat capacity at constant pressure [J/K/mol], [2], 101.33 kPa
Conditions | 298.15 K | 308.15 K | 318.15 K
x2 = 0 | 200.4 | 203.9 | 207.2
x2 = 0.08706 | 196.4 | 201.5 | 206.4
x2 = 0.1439 | 189.3 | 193.7 | 198.6
x2 = 0.2708 | 168.3 | 172.9 | 177
x2 = 0.3817 | 167 | 170.3 | 174.1
x2 = 0.4964 | 162.3 | 164.4 | 166.7
x2 = 0.5422 | 160.1 | 162.4 | 164.9
x2 = 0.5966 | 159.3 | 161.5 | 163.6
x2 = 0.6863 | 146.6 | 149.1 | 150.8
x2 = 0.7711 | 146.9 | 148.1 | 149.8
x2 = 0.8577 | 149.7 | 151.2 | 152.5
x2 = 0.9237 | 149 | 150.2 | 151.4
x2 = 0.9508 | 146.4 | 147.6 | 148.8

OCCc1ccccc1 [2-phenylethanol] + C[S+](C)[O-]
Conditions | excess molar enthalpy [kcal/mol] | mass density [kg/m3] | refractive index | viscosity [mPa·s]
[1], x2 = 0.0435 | – | 1011.25 | – | 7.049
[1], x2 = 0.1521 | – | 1017.45 | – | 6.133
[1], x2 = 0.2758 | – | 1024.6 | – | 5.162
[1], x2 = 0.3564 | – | 1029.49 | – | 4.611
[1], x2 = 0.4566 | – | 1035.91 | – | 3.976
[1], x2 = 0.5477 | – | 1042.18 | – | 3.446
[1], x2 = 0.6247 | – | 1047.95 | – | 3.052
[1], x2 = 0.7102 | – | 1054.95 | – | 2.652
[1], x2 = 0.7707 | – | 1060.33 | – | 2.398
[1], x2 = 0.8346 | – | 1066.5 | – | 2.157
[1], x2 = 0.8653 | – | 1069.64 | – | 2.056
[1], x2 = 0.9433 | – | 1078.31 | – | 1.806
[3], x2 = 0.0655 | -0.093 | – | – | –
[3], x2 = 0.123 | -0.15 | – | – | –
[3], x2 = 0.1738 | -0.185 | – | – | –
[3], x2 = 0.219 | -0.207 | – | – | –
[3], x2 = 0.2961 | -0.226 | – | – | –
[3], x2 = 0.3593 | -0.233 | – | – | –
[3], x2 = 0.4569 | -0.222 | – | – | –
[3], x2 = 0.5286 | -0.207 | – | – | –
[3], x2 = 0.6273 | -0.175 | – | – | –
[3], x2 = 0.7163 | -0.137 | – | – | –
[3], x2 = 0.7709 | -0.112 | – | – | –
[3], x2 = 0.8347 | -0.0825 | – | – | –
[3], x2 = 0.8707 | -0.0643 | – | – | –
[3], x2 = 0.9099 | -0.0459 | – | – | –
[3], x2 = 0.9309 | -0.0351 | – | – | –
[3], x2 = 0.9528 | -0.0234 | – | – | –
[3], x2 = 0.9759 | -0.012 | – | – | –
[4], x2 = 0.0435 | – | – | 1.5257 | –
[4], x2 = 0.1521 | – | – | 1.5224 | –
[4], x2 = 0.2758 | – | – | 1.5179 | –
[4], x2 = 0.3564 | – | – | 1.5145 | –
[4], x2 = 0.4566 | – | – | 1.5099 | –
[4], x2 = 0.5477 | – | – | 1.5052 | –
[4], x2 = 0.6247 | – | – | 1.5008 | –
[4], x2 = 0.7102 | – | – | 1.4956 | –
[4], x2 = 0.7707 | – | – | 1.4916 | –
[4], x2 = 0.8346 | – | – | 1.487 | –
[4], x2 = 0.8653 | – | – | 1.4846 | –
[4], x2 = 0.9433 | – | – | 1.4783 | –

molar heat capacity at constant pressure [J/K/mol], [2], 101.33 kPa
Conditions | 298.15 K | 308.15 K | 318.15 K
x2 = 0 | 239.6 | 245.3 | 251.6
x2 = 0.08581 | 235 | 240.8 | 246.5
x2 = 0.1638 | 218.3 | 223.2 | 228.7
x2 = 0.2999 | 190.7 | 194.2 | 198.1
x2 = 0.4205 | 185 | 188.4 | 191.3
x2 = 0.519 | 185.5 | 188.2 | 190.7
x2 = 0.6293 | 169.3 | 171.3 | 173.6
x2 = 0.6713 | 171 | 172.8 | 174.9
x2 = 0.7066 | 162.6 | 164.6 | 166.5
x2 = 0.7919 | 162.7 | 164.8 | 166.8
x2 = 0.8596 | 156.2 | 157.3 | 159.1
x2 = 0.937 | 157.8 | 159.6 | 160
x2 = 0.9688 | 143.5 | 144.8 | 145.9

OCCCc1ccccc1 [3-phenyl-1-propanol] + C[S+](C)[O-]
Conditions | excess molar enthalpy [kcal/mol] | mass density [kg/m3] | refractive index | viscosity [mPa·s]
[1], x2 = 0.0936 | – | 996.28 | – | 8.592
[1], x2 = 0.1499 | – | 999.45 | – | 7.792
[1], x2 = 0.277 | – | 1007.07 | – | 6.19
[1], x2 = 0.3915 | – | 1014.73 | – | 5.032
[1], x2 = 0.4564 | – | 1019.55 | – | 4.488
[1], x2 = 0.578 | – | 1029.68 | – | 3.629
[1], x2 = 0.6526 | – | 1036.85 | – | 3.18
[1], x2 = 0.7233 | – | 1044.45 | – | 2.801
[1], x2 = 0.7879 | – | 1052.21 | – | 2.487
[1], x2 = 0.8512 | – | 1060.69 | – | 2.208
[1], x2 = 0.9027 | – | 1068.4 | – | 1.993
[1], x2 = 0.9543 | – | 1076.93 | – | 1.801
[3], x2 = 0.0737 | -0.0543 | – | – | –
[3], x2 = 0.1373 | -0.0822 | – | – | –
[3], x2 = 0.1927 | -0.0951 | – | – | –
[3], x2 = 0.2414 | -0.103 | – | – | –
[3], x2 = 0.3232 | -0.101 | – | – | –
[3], x2 = 0.389 | -0.0946 | – | – | –
[3], x2 = 0.4885 | -0.0796 | – | – | –
[3], x2 = 0.56 | -0.0645 | – | – | –
[3], x2 = 0.6563 | -0.0423 | – | – | –
[3], x2 = 0.7413 | -0.0215 | – | – | –
[3], x2 = 0.7925 | -0.0115 | – | – | –
[3], x2 = 0.8514 | -0.00311 | – | – | –
[3], x2 = 0.8843 | 0.00167 | – | – | –
[3], x2 = 0.9162 | 0.00335 | – | – | –
[3], x2 = 0.9386 | 0.0043 | – | – | –
[3], x2 = 0.9582 | 0.00406 | – | – | –
[3], x2 = 0.9787 | 0.00263 | – | – | –
[4], x2 = 0.0936 | – | – | 1.5188 | –
[4], x2 = 0.1499 | – | – | 1.5172 | –
[4], x2 = 0.277 | – | – | 1.5132 | –
[4], x2 = 0.3915 | – | – | 1.509 | –
[4], x2 = 0.4564 | – | – | 1.5063 | –
[4], x2 = 0.578 | – | – | 1.5008 | –
[4], x2 = 0.6526 | – | – | 1.4969 | –
[4], x2 = 0.7233 | – | – | 1.4931 | –
[4], x2 = 0.7879 | – | – | 1.489 | –
[4], x2 = 0.8512 | – | – | 1.4847 | –
[4], x2 = 0.9027 | – | – | 1.4811 | –
[4], x2 = 0.9543 | – | – | 1.4771 | –

molar heat capacity at constant pressure [J/K/mol], [2], 101 kPa
Conditions | 298.15 K | 308.15 K | 318.15 K
x2 = 0 | 276.3 | 284.1 | 291.8
x2 = 0.0905 | 259.9 | 265.7 | 273
x2 = 0.1204 | 250.3 | 256 | 262.8
x2 = 0.1712 | 243.4 | 249.7 | 256.2
x2 = 0.3375 | 211.1 | 215.5 | 220
x2 = 0.452 | 196.9 | 200 | 203.5
x2 = 0.5571 | 185.1 | 187.5 | 190.7
x2 = 0.6101 | 185.8 | 188.7 | 191.4
x2 = 0.6567 | 177 | 178.3 | 180.9
x2 = 0.7396 | 165.6 | 167.2 | 170
x2 = 0.806 | 162.2 | 163.9 | 165.4
x2 = 0.8718 | 159.2 | 160.5 | 161.9
x2 = 0.9487 | 148.5 | 149.3 | 151.3
